Assay results as given in ChEMBL document CHEMBL4813920, “Metronidazole-conjugates: A comprehensive review of recent developments towards synthesis and medicinal perspective” (Eur J Med Chem, 2021).
Converted amounts (≈) assume the structure as drawn.

Assays:
Giardia intestinalis = test: Antigiardial activity against Giardia intestinalis MSS:0696:1 incubated for 48 hrs; format: functional, organism-based; settings: Giardia duodenalis, MSS:0696:1, 48 h
[1] = Cytotoxicity against African green monkey Vero cells incubated for 48 hrs by sulforhodamine B method; format: cell-based; settings: chlorocebus sabaeus
Trichomonas vaginalis = test: Anti-trichomonas activity against Trichomonas vaginalis GT3 incubated for 48 hrs; format: functional, organism-based; settings: GT3, 48 h
[2] = Selectivity index, ratio of CC50 for African green monkey Vero cells to IC50 for antigiardial activity against Trichomonas vaginalis GT3; format: toxicity; settings: read-out: Ratio CC50/IC50
[3] = Selectivity index, ratio of CC50 for African green monkey Vero cells to IC50 for antigiardial activity against Giardia intestinalis MSS:0696:1; format: toxicity; settings: read-out: Ratio CC50/IC50
A549 [4] = test: Anticancer activity against human A549 cells assessed as inhibition of cell proliferation at 0.5 uM measured after 48 hrs by CCK8 assay relative to control; format: functional
NCI-H446 = test: Anticancer activity against human NCI-H446 cells assessed as inhibition of cell proliferation at 0.5 uM measured after 48 hrs by CCK8 assay relative to control; format: functional
Bacillus spizizenii [5] = test: Antibacterial activity against Bacillus subtilis ATCC 6633 incubated for 24 hrs by two fold serial dilution method; format: functional
Pseudomonas aeruginosa [6] = test: Antibacterial activity against Pseudomonas aeruginosa ATCC 13525 incubated for 24 hrs by two fold serial dilution method; format: functional
Staphylococcus aureus [7] = test: Antibacterial activity against Staphylococcus aureus ATCC 6538 incubated for 24 hrs by two fold serial dilution method; format: functional
[8] = Inhibition of Escherichia coli N-terminal His-tagged FabH expressed in Escherichia coli BL21(DE3) by liquid scintillation counting method
[9] = Acute oral toxicity in mouse assessed as behavioral changes measured once daily for 14 days; settings: in vivo, time 14 day
[10] = Acute oral toxicity in mouse assessed as induction of mortality measured once daily for 14 days; settings: in vivo, time 14 day
[11] = Acute oral toxicity in mouse assessed as signs of gross toxicity measured once daily for 14 days; settings: in vivo, time 14 day
Escherichia coli [12] = test: Antibacterial activity against Escherichia coli ATCC 35218 incubated for 24 hrs by two fold serial dilution method; format: functional
[13] = Selectivity index, ratio of CC50 for cytotoxicity against human MT4 cells to EC50 for antiviral activity against HIV1 3B infected in human MT4 cells; format: toxicity, cell-based; settings: read-out: Ratio CC50/EC50
[14] = Cytotoxicity against human MT4 cells assessed as reduction in cell viability after 5 days by MTT assay; format: cell-based; settings: time 5 day
[15] = system: Human immunodeficiency virus 1; test: Antiviral activity against HIV1 3B infected in human MT4 cells assessed as reduction in virus-induced cell death incubated for 5 days by MTT assay; format: functional, organism-based; settings: Human immunodeficiency virus 1, 3B, MT4, 120 h
Helicobacter pylori [16] = test: Potency index, ratio of MIC for metronidazole to test compound for Helicobacter pylori clinical isolate3 for 3 days by agar dilution method; format: functional; settings: time 3 day
Helicobacter pylori [17] = test: Antimicrobial activity against Helicobacter pylori SS1 clinical isolate2 for 3 days by agar dilution method; format: functional; settings: SS1 clinical isolate2, 72 h, time 3 day
Helicobacter pylori [18] = test: Antimicrobial activity against Helicobacter pylori ATCC 43504 incubated for 3 days by agar dilution method; format: functional; settings: NCTC 11637 = CCUG 17874 = ATCC 43504, 72 h, time 3 day
Helicobacter pylori [19] = test: Antimicrobial activity against Helicobacter pylori clinical isolate3 for 3 days by agar dilution method; format: functional; settings: clinical isolate3, 72 h, time 3 day
Helicobacter pylori [20] = test: Potency index, ratio of MIC for metronidazole to test compound for Helicobacter pylori ATCC 43504 incubated for 3 days by agar dilution method; format: functional, NCTC 11637 = CCUG 17874 = ATCC 43504; settings: time 3 day
Helicobacter pylori [21] = test: Antimicrobial activity against Helicobacter pylori clinical isolate8 for 3 days by agar dilution method; format: functional; settings: clinical isolate8, 72 h, time 3 day
Helicobacter pylori [22] = test: Antimicrobial activity against Helicobacter pylori SS1 incubated for 3 days by agar dilution method; format: functional; settings: SS1, 72 h, time 3 day
Helicobacter pylori [23] = test: Potency index, ratio of MIC for metronidazole to test compound for Helicobacter pylori SS1 incubated for 3 days by agar dilution method; format: functional; settings: time 3 day
Helicobacter pylori [24] = test: Potency index, ratio of MIC for metronidazole to test compound for Helicobacter pylori clinical isolate8 for 3 days by agar dilution method; format: functional; settings: time 3 day
Helicobacter pylori [25] = test: Potency index, ratio of MIC for metronidazole to test compound for Helicobacter pylori clinical isolate2 for 3 days by agar dilution method; format: functional; settings: time 3 day
Proteus vulgaris [26] = test: Potency index, ratio of Norfloxacin MIC to test compound MIC for antibacterial activity against Proteus vulgaris by two-fold serial dilution technique; format: functional
Proteus vulgaris [27] = test: Potency index, ratio of Chloromycin MIC to test compound MIC for antibacterial activity against Proteus vulgaris by two-fold serial dilution technique; format: functional
Escherichia coli [28] = test: Antibacterial activity against Escherichia coli DH52 by two-fold serial dilution technique; format: functional
Shigella dysenteriae = test: Antibacterial activity against Shigella dysenteriae by two-fold serial dilution technique; format: functional
Staphylococcus aureus [29] = test: Antibacterial activity against Methicillin-resistant Staphylococcus aureus N315 by two-fold serial dilution technique; format: functional
Cyberlindnera jadinii = test: Antifungal activity against Candida utilis by two-fold serial dilution technique; format: functional; settings: Williopsis jadinii
Saccharomyces cerevisiae = test: Antifungal activity against Beer yeast by two-fold serial dilution technique; format: functional
Proteus vulgaris [30] = test: Antibacterial activity against Proteus vulgaris by two-fold serial dilution technique; format: functional
Proteus vulgaris [31] = test: Potency index, ratio of Metronidazole MIC to test compound MIC for antibacterial activity against Proteus vulgaris by two-fold serial dilution technique; format: functional
Helicobacter pylori [32] = test: Antibacterial activity against Helicobacter pylori P12 incubated for 48 hrs by MTT assay; format: functional, organism-based
Helicobacter pylori [33] = test: Antibacterial activity against Helicobacter pylori ATCC 26695 incubated for 48 hrs by MTT assay; format: functional, organism-based
Clostridium perfringens = test: Antibacterial activity against Clostridium perfringens ATCC 13124 incubated for 48 hrs under anaerobic condition by MTT assay; format: functional
Escherichia coli [34] = test: Antibacterial activity against Escherichia coli ATCC 35218 by MH media dilution method; format: functional
[35] = Inhibition of Staphylococcus aureus TyrRS using L-tyrosine and tRNA as substrate preincubated for 10 mins followed by substrate addition by liquid scintillation counting method
Bacillus spizizenii [36] = test: Antibacterial activity against Bacillus subtilis ATCC 6633 by MH media dilution method; format: functional
Pseudomonas aeruginosa [37] = test: Antibacterial activity against Pseudomonas aeruginosa ATCC 13525 by MH media dilution method; format: functional
Staphylococcus aureus [38] = test: Antibacterial activity against Staphylococcus aureus ATCC 6538 by MH media dilution method; format: functional
A549 [39] = test: Antiproliferative activity against human A549 cells incubated for 24 to 48 hrs by CCK8 assay; format: functional, cell-based
HepG2 = test: Antiproliferative activity against human HepG2 cells incubated for 24 to 48 hrs by CCK8 assay; format: functional, cell-based
U-251 = test: Antiproliferative activity against human U-251 cells incubated for 24 to 48 hrs by CCK8 assay; format: functional, cell-based
[40] = molecular target: Telomerase reverse transcriptase (Homo sapiens, UniProt O14746); test: Inhibition of telomerase in human SGC-7901 cell extract by TRAP assay
Chain of Telomerase reverse transcriptase (O14746 whole entry): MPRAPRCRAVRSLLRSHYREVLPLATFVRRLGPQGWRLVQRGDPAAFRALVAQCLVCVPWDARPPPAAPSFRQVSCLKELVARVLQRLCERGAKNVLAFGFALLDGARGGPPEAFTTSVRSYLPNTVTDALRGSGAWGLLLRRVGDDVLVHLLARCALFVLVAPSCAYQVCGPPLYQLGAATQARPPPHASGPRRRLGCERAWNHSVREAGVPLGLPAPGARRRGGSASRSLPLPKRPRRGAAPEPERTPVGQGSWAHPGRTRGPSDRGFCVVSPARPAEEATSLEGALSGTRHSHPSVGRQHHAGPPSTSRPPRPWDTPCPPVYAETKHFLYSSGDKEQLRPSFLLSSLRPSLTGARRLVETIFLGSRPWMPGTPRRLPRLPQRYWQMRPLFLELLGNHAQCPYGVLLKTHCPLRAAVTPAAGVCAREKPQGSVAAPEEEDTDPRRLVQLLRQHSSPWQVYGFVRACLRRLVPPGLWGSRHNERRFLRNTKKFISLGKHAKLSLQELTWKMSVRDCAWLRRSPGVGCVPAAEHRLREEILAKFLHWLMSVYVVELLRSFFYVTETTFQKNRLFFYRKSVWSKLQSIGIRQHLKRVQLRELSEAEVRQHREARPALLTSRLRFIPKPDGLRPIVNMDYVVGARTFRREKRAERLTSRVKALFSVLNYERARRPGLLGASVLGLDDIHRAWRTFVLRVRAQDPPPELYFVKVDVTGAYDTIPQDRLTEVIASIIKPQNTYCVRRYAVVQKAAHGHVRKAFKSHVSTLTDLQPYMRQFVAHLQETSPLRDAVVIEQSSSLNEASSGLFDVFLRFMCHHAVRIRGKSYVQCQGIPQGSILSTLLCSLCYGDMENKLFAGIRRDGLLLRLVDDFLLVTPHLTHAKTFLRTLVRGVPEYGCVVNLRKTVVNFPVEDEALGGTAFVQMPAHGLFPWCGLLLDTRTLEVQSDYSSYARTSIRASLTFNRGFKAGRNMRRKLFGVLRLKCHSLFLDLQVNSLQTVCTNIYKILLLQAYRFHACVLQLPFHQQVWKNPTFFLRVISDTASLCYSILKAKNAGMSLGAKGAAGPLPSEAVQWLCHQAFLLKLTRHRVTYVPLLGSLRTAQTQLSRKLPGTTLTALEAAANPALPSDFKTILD

HeLa = test: Antiproliferative activity against human Hela cells incubated for 24 to 48 hrs by CCK8 assay; format: functional, cell-based
B16-F10 = test: Antiproliferative activity against mouse B16-F10 cells incubated for 24 to 48 hrs by MTT assay; format: functional, cell-based
HEK293 = test: Cytotoxicity against HEK293 cells after 24 hrs by MTT assay; format: cell-based; settings: Homo sapiens, HEK293, 24 h
MCF7 = test: cells; settings: Homo sapiens, MCF7, 24 h
MDA-MB-231 = test: Antiproliferative activity against human MDA-MB-231 cells after 24 hrs by MTT assay; format: functional, cell-based; settings: MDA-MB-231, 24 h

In the case of `Cc1ncc([N+](=O)[O-])n1CCOC(=O)Nc1ccc([N+](=O)[O-])cc1`, the IC50 (Giardia intestinalis) is reported as 860 nM, the CC50 at 48 h [1] is reported as over 100000 nM and the IC50 (Trichomonas vaginalis) is reported as 9990 nM. For the same compound, the selectivity ratio [2] was over 10 and the selectivity ratio [3] was over 116.
`COc1cc2c(Nc3ccc(Br)cc3F)ncnc2cc1OCC1CCN(C(=O)Cn2cncc2[N+](=O)[O-])CC1` gave an inhibition at 0.5 µM (A549 [4]) of 62% and an inhibition at 0.5 µM (NCI-H446) of 59.9%.
Compound `Cc1ncc([N+](=O)[O-])n1CCOC(=O)Nc1ccccc1` has an IC50 (Giardia intestinalis) of 980 nM, a CC50 at 48 h [1] of over 100000 nM and an IC50 (Trichomonas vaginalis) of 90 nM. The selectivity ratio [2] was 1110 and the selectivity ratio [3] was over 102.
In the case of `Cc1ncc([N+](=O)[O-])n1CCOC(=O)NC1CCCCC1`, the IC50 (Giardia intestinalis) is reported as 460 nM, the CC50 at 48 h [1] is reported as over 100000 nM and the IC50 (Trichomonas vaginalis) is reported as 60 nM. For the same compound, the selectivity ratio [2] was 1670 and the selectivity ratio [3] was over 217.
`Cc1ncc([N+](=O)[O-])n1CC(C)OC(=O)c1ccc(/C=N/c2ccc(S(=O)(=O)NC(=N)N)cc2)cc1` (centres undefined) gave an MIC (Bacillus spizizenii [5]) of 3.13 µg/mL (≈ 6.09 µM), an MIC (Pseudomonas aeruginosa [6]) of 25 µg/mL (≈ 48.7 µM) and an MIC (Staphylococcus aureus [7]) of 12.5 µg/mL (≈ 24.3 µM). For the same compound, the IC50 [8] was 4930 nM, the LD50 at 336 h [9] was over 5000 mg/kg and the LD50 at 336 h [10] was over 5000 mg/kg. For the same compound, the LD50 at 336 h [11] was over 5000 mg/kg and the MIC (Escherichia coli [12]) was 3.13 µg/mL (≈ 6.09 µM).
Compound `Cc1ncc([N+](=O)[O-])n1CCSc1ccccc1` has a selectivity ratio [13] of 11, a CC50 at 120 h [14] of 24800 nM and an EC50 [15] of 2230 nM.
Compound `Cc1ncc([N+](=O)[O-])n1CCOc1cc(O)c2c(=O)c(-c3ccc(O)cc3)coc2c1` has a Ratio (Helicobacter pylori [16]) of over 50, an MIC (Helicobacter pylori [17]) of 0.39 µg/mL (≈ 0.921 µM) and an MIC (Helicobacter pylori [18]) of 0.39 µg/mL (≈ 0.921 µM). For the same compound, the MIC (Helicobacter pylori [19]) was 0.39 µg/mL (≈ 0.921 µM), the Ratio (Helicobacter pylori [20]) was over 50 and the MIC (Helicobacter pylori [21]) was 0.39 µg/mL (≈ 0.921 µM). For the same compound, the MIC (Helicobacter pylori [22]) was 0.39 µg/mL (≈ 0.921 µM), the Ratio (Helicobacter pylori [23]) was over 50 and the Ratio (Helicobacter pylori [24]) was over 50. It also gave a Ratio (Helicobacter pylori [25]) of over 50.
In the case of `CCNc1ccc2c3c(cccc13)C(=O)N(CC(O)Cn1c([N+](=O)[O-])cnc1C)C2=O` (centres undefined), the Ratio (Proteus vulgaris [26]) is reported as 10, the Ratio (Proteus vulgaris [27]) is reported as 50 and the MIC (Escherichia coli [28]) is reported as 40 µM (≈ 16.9 µg/mL). It also gave an MIC (Shigella dysenteriae) of 10 µM (≈ 4.23 µg/mL), an MIC (Staphylococcus aureus [29]) of 40 µM (≈ 16.9 µg/mL) and an MIC (Cyberlindnera jadinii) of 20 µM (≈ 8.47 µg/mL). It also gave an MIC (Saccharomyces cerevisiae) of 10 µM (≈ 4.23 µg/mL), an MIC (Proteus vulgaris [30]) of 2 µM (≈ 0.847 µg/mL) and a Ratio (Proteus vulgaris [31]) of 95.
Compound `Cc1ccc(C(C)C)cc1OCCn1c([N+](=O)[O-])cnc1C` has an IC50 (Helicobacter pylori [32]) of 0.0011 uM/ml, an IC50 (Helicobacter pylori [33]) of 4.921 uM/ml and an MIC (Clostridium perfringens) of 2.7 µM (≈ 0.819 µg/mL).
Work on `COc1ccc(-c2cc(C(=O)OCCn3c([N+](=O)[O-])cnc3C)nn2-c2ccc(Cl)cc2)cc1` yielded an MIC (Escherichia coli [34]) of 3.91 µg/mL (≈ 8.11 µM), an IC50 [35] of 1670 nM and an MIC (Bacillus spizizenii [36]) of 7.82 µg/mL (≈ 16.2 µM). For the same compound, the MIC (Pseudomonas aeruginosa [37]) was 1.96 µg/mL (≈ 4.07 µM) and the MIC (Staphylococcus aureus [38]) was 7.82 µg/mL (≈ 16.2 µM).
In the case of `CN(C)c1ccc(/C=C/c2ncc([N+](=O)[O-])n2CCOC(=O)c2nccc3ccccc23)cc1`, the IC50 (A549 [39]) is reported as 170 nM, the IC50 (HepG2) is reported as 140 nM and the IC50 (U-251) is reported as 430 nM. The IC50 [40] was 1920 nM and the IC50 (HeLa) was 120 nM.
`Cc1cc(C)nc(NS(=O)(=O)c2ccc(/N=C\c3ccc(OCCn4c([N+](=O)[O-])cnc4C)cc3)cc2)n1` showed an IC50 (B16-F10) of 190 nM.
Work on `Cc1ncc([N+](=O)[O-])n1Cc1cn(CCCCN2C(=O)C(=O)c3cc(Cl)ccc32)nn1` yielded an IC50 (HEK293) of over 100000 nM, an IC50 (MCF7) of 54200 nM and an IC50 (MDA-MB-231) of 26100 nM.
